According to ChEMBL document CHEMBL5154944, “Discovery of Aryloxyphenyl-Heptapeptide Hybrids as Potent and Selective Matrix Metalloproteinase-2 Inhibitors for the Treatment of Idiopathic Pulmonary Fibrosis” (J Med Chem, 2022):
pIC50: −log10 of the molar value. Non-standard residues stand in square brackets, D forms with d. Residues, ends and D or L forms follow the SMILES beside them. *: point of attachment. Benzoyl(4-OPh(4-CONH2)) = NC(=O)c1ccc(Oc2ccc(C(=O)*)cc2)cc1; Benzenesulfonyl(4-OPh) = O=S(=O)(c1ccc(Oc2ccccc2)cc1)*; Benzenesulfonyl(4-Ph) = O=S(=O)(c1ccc(-c2ccccc2)cc1)*; NMeI = CC[C@H](C)[C@H](NC)C(=O)O; NMeE = CN[C@@H](CCC(=O)O)C(=O)O; NMeM = CN[C@@H](CCSC)C(=O)O; β3hP = O=C(O)C[C@@H]1CCCN1; Dab = NCC[C@H](N)C(=O)O; Ava = NCCCCC(=O)O; GABA = NCCCC(=O)O; βAla = NCCC(=O)O

Columns and labels:
Matrilysin = target: T1, Matrilysin (Homo sapiens, UniProt P09237)
T1 sequence (P09237 whole entry): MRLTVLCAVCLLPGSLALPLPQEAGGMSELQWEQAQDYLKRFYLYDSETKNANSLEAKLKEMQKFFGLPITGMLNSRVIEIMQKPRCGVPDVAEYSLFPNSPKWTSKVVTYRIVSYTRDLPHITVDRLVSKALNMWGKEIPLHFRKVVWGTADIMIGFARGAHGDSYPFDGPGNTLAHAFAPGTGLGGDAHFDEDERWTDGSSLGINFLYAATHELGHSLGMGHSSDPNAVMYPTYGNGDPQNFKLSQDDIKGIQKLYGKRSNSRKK

[1] = target: Matrix metalloproteinase-14 (Homo sapiens, UniProt P50281); assay: Inhibition of recombinant human MMP14 using MOCAc-Lys-Pro-Leu-Gly-Leu-A2pr(Dnp)-Ala-Arg-NH2 as substrate preincubated for 15 mins followed by substrate addition by fluroscence based assay
[2] = target: Macrophage metalloelastase (Homo sapiens, UniProt P39900)
Collagenase 3 = Collagenase 3 (Homo sapiens, UniProt P45452)
Homo sapiens [3] = organism: Homo sapiens; assay: Selectivity ratio of IC50 for recombinant human MMP12 to IC50 for recombinant human MMP2
[4] = target: 72 kDa type IV collagenase (Homo sapiens, UniProt P08253)
[5] = Metabolic stability in rat hepatocytes assessed as parent compound remaining incubated for 1 hr by LC-MS/MS; assay type: ADME, cell-based, Hepatocyte; settings: read-out: Stability
Interstitial collagenase = target: T2, Interstitial collagenase (Homo sapiens, UniProt P03956); assay: Inhibition of recombinant human MMP1 using MOCAc-Lys-Pro-Leu-Gly-Leu-A2pr(Dnp)-Ala-Arg-NH2 as substrate preincubated for 15 mins followed by substrate addition by fluroscence based assay
T2 sequence (P03956 whole entry): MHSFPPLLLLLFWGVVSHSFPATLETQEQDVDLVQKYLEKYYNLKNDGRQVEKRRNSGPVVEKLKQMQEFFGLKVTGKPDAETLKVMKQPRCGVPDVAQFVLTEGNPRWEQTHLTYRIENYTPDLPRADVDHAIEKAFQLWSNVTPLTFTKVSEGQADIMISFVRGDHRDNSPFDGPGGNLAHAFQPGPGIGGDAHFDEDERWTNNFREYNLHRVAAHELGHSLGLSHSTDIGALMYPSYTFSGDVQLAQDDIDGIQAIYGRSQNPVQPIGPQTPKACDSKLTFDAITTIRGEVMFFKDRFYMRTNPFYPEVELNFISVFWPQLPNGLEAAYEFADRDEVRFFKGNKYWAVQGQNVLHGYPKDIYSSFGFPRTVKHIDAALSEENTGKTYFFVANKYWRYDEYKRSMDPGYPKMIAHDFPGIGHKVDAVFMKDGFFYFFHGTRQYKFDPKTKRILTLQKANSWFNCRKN

Stromelysin-1 = Stromelysin-1 (Homo sapiens, UniProt P08254); assay: Inhibition of recombinant human MMP3 using MOCAc-Lys-Pro-Leu-Gly-Leu-A2pr(Dnp)-[…] as substrate preincubated for 15 mins followed by substrate addition by fluroscence based assay
Neutrophil collagenase = Neutrophil collagenase (Homo sapiens, UniProt P22894)
[6] = target: Matrix metalloproteinase-9 (Homo sapiens, UniProt P14780)
[7] = target: MMP-1/MMP-2 (Homo sapiens) (UniProt P08253+P03956); assay: Selectivity ratio of IC50 for recombinant human MMP1 to IC50 for recombinant human MMP2; assay type: protein assay
Homo sapiens [8] = organism: Homo sapiens; assay: Selectivity ratio of IC50 for recombinant human MMP3 to IC50 for recombinant human MMP2
Homo sapiens [9] = organism: Homo sapiens; assay: Selectivity ratio of IC50 for recombinant human MMP7 to IC50 for recombinant human MMP2
Homo sapiens [10] = organism: Homo sapiens; assay: Selectivity ratio of IC50 for recombinant human MMP8 to IC50 for recombinant human MMP2
[11] = target: MMP-2/MMP-9 (Homo sapiens) (UniProt P08253+P14780); assay: Selectivity ratio of IC50 for recombinant human MMP9 to IC50 for recombinant human MMP2; assay type: protein assay
[12] = target: MMP-2/MMP-14 (Homo sapiens) (UniProt P50281+P08253); assay: Selectivity ratio of IC50 for recombinant human MMP14 to IC50 for recombinant human MMP2; assay type: protein assay
[13] = Clearance in fasted Sprague-Dawley rat at 0.4 mg/kg, iv by LC-MS/MS analysis; assay type: ADME, organism-based; settings: in vivo
[14] = Volume of distribution at steady state in fasted Sprague-Dawley rat at 0.4 mg/kg, iv by LC-MS/MS analysis; assay type: ADME, organism-based; settings: in vivo, read-out: Vdss
[15] = Half life in fasted Sprague-Dawley rat at 0.4 mg/kg, iv by LC-MS/MS analysis; assay type: ADME, organism-based; settings: in vivo
physchem [16] = settings: buffer, pH 7.4
[17] = Chemical stability of the compound in acetate buffer at pH 4.0 assessed as residual rate incubated for 2 weeks by HPLC analysis; assay type: physicochemical; settings: read-out: Stability
physchem [18] = settings: phosphate buffer, pH 7.4
physchem [19] = settings: phosphate buffer, pH 9

Sequence of Macrophage metalloelastase (P39900 whole entry): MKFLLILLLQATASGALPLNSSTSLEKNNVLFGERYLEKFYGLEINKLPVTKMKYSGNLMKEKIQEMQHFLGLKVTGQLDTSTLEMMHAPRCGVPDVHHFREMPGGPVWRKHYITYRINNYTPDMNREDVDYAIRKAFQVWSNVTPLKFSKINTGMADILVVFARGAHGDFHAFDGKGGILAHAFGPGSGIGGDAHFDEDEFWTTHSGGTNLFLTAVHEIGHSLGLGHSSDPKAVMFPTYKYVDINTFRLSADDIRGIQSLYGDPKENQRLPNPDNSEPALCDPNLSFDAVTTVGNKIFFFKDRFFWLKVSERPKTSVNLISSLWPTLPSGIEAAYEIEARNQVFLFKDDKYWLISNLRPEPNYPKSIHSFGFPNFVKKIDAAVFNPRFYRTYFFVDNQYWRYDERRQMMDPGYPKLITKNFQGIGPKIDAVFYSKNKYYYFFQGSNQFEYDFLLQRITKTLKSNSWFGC
Sequence of 72 kDa type IV collagenase (P08253 whole entry): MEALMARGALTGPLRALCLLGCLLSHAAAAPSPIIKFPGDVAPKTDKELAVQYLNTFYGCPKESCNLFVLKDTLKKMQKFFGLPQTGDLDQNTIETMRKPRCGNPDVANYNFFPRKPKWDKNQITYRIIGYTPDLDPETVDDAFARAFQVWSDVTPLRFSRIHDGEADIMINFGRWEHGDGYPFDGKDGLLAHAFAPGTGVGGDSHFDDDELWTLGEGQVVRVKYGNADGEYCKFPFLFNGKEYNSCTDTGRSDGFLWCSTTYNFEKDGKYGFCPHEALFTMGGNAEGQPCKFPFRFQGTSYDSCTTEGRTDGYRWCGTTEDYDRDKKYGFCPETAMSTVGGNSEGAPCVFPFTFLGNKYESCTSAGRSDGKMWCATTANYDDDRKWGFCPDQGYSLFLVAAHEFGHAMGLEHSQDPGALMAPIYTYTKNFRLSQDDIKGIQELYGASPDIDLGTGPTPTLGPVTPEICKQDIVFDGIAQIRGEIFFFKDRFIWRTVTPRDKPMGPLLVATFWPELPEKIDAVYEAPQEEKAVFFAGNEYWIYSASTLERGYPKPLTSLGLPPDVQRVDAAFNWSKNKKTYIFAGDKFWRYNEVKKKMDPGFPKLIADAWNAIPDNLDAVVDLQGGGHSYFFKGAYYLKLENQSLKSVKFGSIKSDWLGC
Sequence of Matrix metalloproteinase-9 (P14780 whole entry): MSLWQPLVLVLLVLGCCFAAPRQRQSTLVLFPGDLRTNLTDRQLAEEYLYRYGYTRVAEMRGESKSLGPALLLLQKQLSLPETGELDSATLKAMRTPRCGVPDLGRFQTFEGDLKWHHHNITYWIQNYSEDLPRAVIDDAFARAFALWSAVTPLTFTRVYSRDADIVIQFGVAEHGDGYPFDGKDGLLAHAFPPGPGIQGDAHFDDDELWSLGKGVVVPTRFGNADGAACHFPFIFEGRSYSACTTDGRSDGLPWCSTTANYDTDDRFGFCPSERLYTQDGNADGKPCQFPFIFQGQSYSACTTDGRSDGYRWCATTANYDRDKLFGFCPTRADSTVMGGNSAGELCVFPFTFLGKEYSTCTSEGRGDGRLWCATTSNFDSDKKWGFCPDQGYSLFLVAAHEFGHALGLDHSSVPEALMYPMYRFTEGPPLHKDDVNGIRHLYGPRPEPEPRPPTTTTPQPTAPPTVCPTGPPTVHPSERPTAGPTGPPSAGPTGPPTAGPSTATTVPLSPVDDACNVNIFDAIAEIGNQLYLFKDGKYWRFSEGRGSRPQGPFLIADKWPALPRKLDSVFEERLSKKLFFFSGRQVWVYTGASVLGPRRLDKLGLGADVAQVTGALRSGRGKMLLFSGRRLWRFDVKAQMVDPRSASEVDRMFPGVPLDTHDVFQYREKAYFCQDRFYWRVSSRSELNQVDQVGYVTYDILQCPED
Sequence of Stromelysin-1 (P08254 whole entry): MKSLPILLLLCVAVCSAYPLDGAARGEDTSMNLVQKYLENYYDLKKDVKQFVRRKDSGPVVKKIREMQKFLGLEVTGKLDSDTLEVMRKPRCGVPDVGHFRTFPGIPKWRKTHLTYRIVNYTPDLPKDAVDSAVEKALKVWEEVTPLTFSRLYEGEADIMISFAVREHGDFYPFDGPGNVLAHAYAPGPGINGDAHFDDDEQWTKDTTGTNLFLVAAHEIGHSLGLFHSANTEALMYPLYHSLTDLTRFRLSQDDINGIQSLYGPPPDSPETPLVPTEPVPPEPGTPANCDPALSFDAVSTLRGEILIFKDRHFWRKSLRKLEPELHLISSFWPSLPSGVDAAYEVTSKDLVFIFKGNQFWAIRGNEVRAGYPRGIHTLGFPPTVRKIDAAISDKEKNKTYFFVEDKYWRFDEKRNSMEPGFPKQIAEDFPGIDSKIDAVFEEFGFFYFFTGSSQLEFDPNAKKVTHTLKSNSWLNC
Sequence of MMP-1/MMP-2 (Homo sapiens) (P08253 whole entry, looked up, one chain of several): as the sequence (P08253 whole entry) above
Sequence of Neutrophil collagenase (P22894 whole entry): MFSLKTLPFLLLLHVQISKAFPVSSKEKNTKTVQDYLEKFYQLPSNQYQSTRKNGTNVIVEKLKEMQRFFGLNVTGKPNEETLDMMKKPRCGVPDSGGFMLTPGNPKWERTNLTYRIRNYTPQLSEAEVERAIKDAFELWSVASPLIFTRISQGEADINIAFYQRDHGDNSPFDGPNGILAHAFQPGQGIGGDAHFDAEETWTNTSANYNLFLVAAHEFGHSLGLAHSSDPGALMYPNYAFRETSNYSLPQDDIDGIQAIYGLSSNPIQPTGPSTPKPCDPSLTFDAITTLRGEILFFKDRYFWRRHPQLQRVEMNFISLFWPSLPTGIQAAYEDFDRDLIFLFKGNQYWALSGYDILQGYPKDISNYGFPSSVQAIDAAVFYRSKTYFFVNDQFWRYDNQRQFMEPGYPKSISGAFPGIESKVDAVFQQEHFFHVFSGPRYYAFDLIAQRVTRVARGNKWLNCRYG

pIC50 [2]	SMILES	pIC50 (Matrilysin)	pIC50 [1]	pIC50 (Collagenase 3)	Ratio IC50 (Homo sapiens [3])	pIC50 [4]	remaining at 1 h, 1 µM [5] [%]	clearance [13] [mL/min/kg]	Vd [14] [L/kg]	half-life [15] [min]	other results
9.34	CNC(=O)[C@H](Cc1c[nH]c2ccccc12)NC(=O)[C@@H](CC(=O)NO)CC(C)C [ILOMASTAT]	8.29	8.96	9.55							
6.04	CSCC[C@H](NC(=O)[C@H](CC(C)C)NC(=O)[C@H](C)NC(=O)[C@H](CC(=O)O)NC(=O)[C@H](CC(N)=O)NC(=O)CNS(=O)(=O)c1ccc(Oc2ccccc2)cc1)C(=O)N1CCC[C@H]1C(N)=O ({Benzenesulfonyl(4-OPh)}-GNDALMP-NH2)			5.19	13	7.16					
5.38	CSCC[C@H](NC(=O)[C@H](CC(C)C)NC(=O)[C@H](C)NC(=O)[C@H](CC(=O)O)NC(=O)[C@H](CC(N)=O)NC(=O)CNS(=O)(=O)c1ccc(-c2ccccc2)cc1)C(=O)N1CCC[C@H]1C(N)=O ({Benzenesulfonyl(4-Ph)}-GNDALMP-NH2)			< 5.00		< 7.00					
	CC(C)C[C@H](NC(=O)[C@H](CCN)NC(=O)[C@H](CC(=O)O)NC(=O)[C@H](CC(N)=O)NC(=O)CCCNS(=O)(=O)c1ccc(Oc2ccccc2)cc1)C(=O)N(C)[C@@H](CCC(=O)O)C(=O)N1CCC[C@H]1CC(N)=O ({Benzenesulfonyl(4-OPh)-GABA}-ND[Dab]L[NMeE][β3hP]-NH2)	< 5.00	6.28	6.44	7240	10.17	91.7	20.2	0.275	9	pIC50 (Interstitial collagenase): < 5.00; pIC50 (Stromelysin-1): < 5.00; pIC50 (Neutrophil collagenase): 5.23; pIC50 [6]: < 5.00; Ratio IC50 [7]: > 147000; Ratio IC50 (Homo sapiens [8]): > 147000; Ratio IC50 (Homo sapiens [9]): > 147000; Ratio IC50 (Homo sapiens [10]): 86500; Ratio IC50 [11]: > 147000; Ratio IC50 [12]: 7740; logD (physchem [16]): 1.26
	CC(C)C[C@H](NC(=O)[C@H](CCN)NC(=O)[C@H](CC(=O)O)NC(=O)[C@H](CC(N)=O)NC(=O)CCCCNC(=O)c1ccc(Oc2ccc(C(N)=O)cc2)cc1)C(=O)N(C)[C@@H](CCC(=O)O)C(=O)N1CCC[C@H]1CC(N)=O ({Benzoyl(4-OPh(4-CONH2))-Ava}-ND[Dab]L[NMeE][β3hP]-NH2)			7.24		10.29	101	12	0.267	16	remaining at 336 h [17]: 95.8%; remaining at 336 h (physchem [18]): 89.4%; remaining at 336 h (physchem [19]): 78%
	CC(C)C[C@H](NC(=O)[C@H](CCN)NC(=O)[C@H](CC(=O)O)NC(=O)[C@H](CC(N)=O)NC(=O)CCNC(=O)c1ccc(Oc2ccc(C(N)=O)cc2)cc1)C(=O)N(C)[C@@H](CCC(=O)O)C(=O)N1CCC[C@H]1CC(N)=O ({Benzoyl(4-OPh(4-CONH2))-βAla}-ND[Dab]L[NMeE][β3hP]-NH2)			6.84	8390	9.28					
	CC[C@H](C)[C@@H](C(=O)N1CCC[C@H]1CC(N)=O)N(C)C(=O)[C@H](CC(C)C)NC(=O)[C@H](C)NC(=O)[C@H](CC(=O)O)NC(=O)[C@H](CC(N)=O)NC(=O)CCCNS(=O)(=O)c1ccc(Oc2ccccc2)cc1 ({Benzenesulfonyl(4-OPh)-GABA}-NDAL[NMeI][β3hP]-NH2)	5.68	7.96	7.68	85	10.26	68.4	74.5	0.882	8	pIC50 (Interstitial collagenase): < 5.00; pIC50 (Stromelysin-1): < 5.00; pIC50 (Neutrophil collagenase): 6.58; pIC50 [6]: 6.74; Ratio IC50 [7]: 182000; Ratio IC50 (Homo sapiens [8]): > 182000; Ratio IC50 (Homo sapiens [9]): 38100; Ratio IC50 (Homo sapiens [10]): 4740; Ratio IC50 [11]: 3290; Ratio IC50 [12]: 200; logD (physchem [16]): 1.53
	CSCC[C@@H](C(=O)N1CCC[C@H]1CC(N)=O)N(C)C(=O)[C@H](CC(C)C)NC(=O)[C@H](C)NC(=O)[C@H](CC(=O)O)NC(=O)[C@H](CC(N)=O)NC(=O)CCCNS(=O)(=O)c1ccc(Oc2ccccc2)cc1 ({Benzenesulfonyl(4-OPh)-GABA}-NDAL[NMeM][β3hP]-NH2)			8.24	43	10.36					
